Experimental data from ChEMBL document CHEMBL3352043, “Discovery of small-molecule inhibitors selectively targeting the DNA-binding domain of the human androgen receptor” (J Med Chem, 2014).
pIC50: −log10 of the molar value. The source made the active and inactive calls. No cut-off for these calls is given here.

Experiments:
Androgen receptor [1] = target: T1, Androgen receptor (Homo sapiens, UniProt P10275); experiment: Inhibition of androgen receptor in human LNCaP cells assessed as inhibition of prostate-specific antigen secretion into media after 3 days; format: cell-based
T1 sequence (P10275 whole entry): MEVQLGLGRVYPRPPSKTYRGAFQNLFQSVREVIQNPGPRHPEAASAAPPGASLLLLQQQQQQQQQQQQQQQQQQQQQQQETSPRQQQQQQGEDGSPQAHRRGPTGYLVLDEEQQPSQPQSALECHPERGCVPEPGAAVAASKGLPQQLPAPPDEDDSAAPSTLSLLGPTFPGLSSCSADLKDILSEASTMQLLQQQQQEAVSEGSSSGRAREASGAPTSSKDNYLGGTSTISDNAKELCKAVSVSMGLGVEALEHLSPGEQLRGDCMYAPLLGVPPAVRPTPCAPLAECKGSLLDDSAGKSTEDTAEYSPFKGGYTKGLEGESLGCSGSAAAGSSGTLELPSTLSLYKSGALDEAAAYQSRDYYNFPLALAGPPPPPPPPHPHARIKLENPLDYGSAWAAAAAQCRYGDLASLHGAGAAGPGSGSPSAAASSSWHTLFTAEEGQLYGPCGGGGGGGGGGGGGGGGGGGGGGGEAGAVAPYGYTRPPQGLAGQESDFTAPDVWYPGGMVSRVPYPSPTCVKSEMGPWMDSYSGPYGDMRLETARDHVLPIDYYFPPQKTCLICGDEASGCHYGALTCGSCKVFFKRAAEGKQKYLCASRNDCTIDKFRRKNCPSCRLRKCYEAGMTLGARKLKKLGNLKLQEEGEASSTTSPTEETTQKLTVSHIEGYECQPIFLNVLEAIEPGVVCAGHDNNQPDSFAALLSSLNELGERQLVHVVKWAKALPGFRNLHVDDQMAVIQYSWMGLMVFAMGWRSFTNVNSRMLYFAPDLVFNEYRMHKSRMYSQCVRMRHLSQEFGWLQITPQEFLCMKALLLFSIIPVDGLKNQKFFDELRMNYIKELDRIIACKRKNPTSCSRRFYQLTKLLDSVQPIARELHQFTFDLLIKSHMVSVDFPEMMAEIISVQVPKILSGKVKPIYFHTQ

Androgen receptor [2] = target: T1, Androgen receptor; experiment: Inhibition of androgen receptor transcriptional activity in human LNCaP cells after 3 days by eGFP assay; format: cell-based
[3] = Stability of the compound in RPMI plus 5% charcoal stripped serum media after 1 hr by MS analysis; format: physicochemical
[4] = Growth inhibition of AR-negative human PC3 cells after 3 days by MTS assay; format: cell-based; settings: pc-3, 72 h
LNCaP = experiment: Growth inhibition of AR-dependent human LNCAP cells at 0.001 to 3 uM after 3 days by MTS assay; format: functional, cell-based

Row | pIC50 (Androgen receptor [1]) | pIC50 (Androgen receptor [2]) | Stability [3] | Structure (SMILES) | Activity [4] | growth inhibition (GI) (LNCaP)
1 | 5.88 | 5.78 | – | Clc1ccc(-c2csc(N3CCOCC3)n2)c(Cl)c1 | – | –
2 | – | 5.45 | – | CS(=O)(=O)c1c(F)cccc1-c1csc(N2CCOCC2)n1 | – | –
3 | 5.53 | 5.48 | – | Clc1ccc(-c2csc(N3CCOCC3)n2)cc1Cl | – | –
4 | 5.09 | 5.13 | – | Oc1ccc2nc(N3CCOCC3)sc2c1 | – | –
5 | 5.40 | 5.58 | – | Clc1ncn(-c2csc(N3CCOCC3)n2)c1I | – | –
6 | 5.65 | 5.38 | – | c1ccc2nc(-c3ccncc3)ccc2c1 | – | –
7 | 6.82 | 6.57 | – | Oc1c(F)cccc1-c1csc(N2CCOCC2)n1 | – | –
8 | 6.66 | 6.59 | – | c1cc(-c2csc(N3CCOCC3)n2)cs1 | – | –
9 | 4.97 | 5.04 | – | Nc1nc(-c2ccc3ccccc3c2)cs1 | – | –
10 | – | 5.84 | – | Cc1sc(N2CCOCC2)nc1-c1ccccc1 | – | –
11 | 6.24 | 6.21 | – | FC(F)(F)c1cccc(-c2csc(N3CCOCC3)n2)c1 | – | –
12 | 5.89 | 5.84 | – | Clc1c(Br)ncn1-c1csc(N2CCOCC2)n1 | – | –
13 | 6.39 | 6.19 | – | Fc1ccc(-c2csc(N3CCOCC3)n2)cc1 | – | –
14 | 6.24 | 6.17 | Stable | Clc1ncn(-c2csc(N3CCOCC3)n2)c1Cl | – | –
15 | 5.74 | 5.76 | Stable | Ic1ncn(-c2csc(N3CCOCC3)n2)c1I | – | –
16 | 6.20 | 5.92 | – | c1ccc(-c2csc(-c3ccncc3)n2)cc1 | – | –
17 | 6.29 | 6.28 | – | c1ccc(-c2ccc(N3CCOCC3)s2)cc1 | – | –
18 | 5.19 | 5.30 | – | Oc1ccc(-c2nc(-c3c[nH]c4ccccc34)cs2)cc1 | – | –
19 | 6.14 | 6.02 | – | Clc1cn(-c2csc(N3CCOCC3)n2)cn1 | – | –
20 | 5.62 | 5.45 | – | Cc1ncn(-c2csc(N3CCOCC3)n2)c1C | – | –
21 | 6.37 | 6.60 | – | Cc1scc(-c2csc(N3CCOCC3)n2)c1C | – | –
22 | 6.28 | 6.21 | – | Cc1ccc(C)c(-c2csc(N3CCOCC3)n2)c1 | – | –
23 | 6.80 | 5.78 | – | FC(F)(F)[C@H]1CN(c2nc(-c3ccccc3)cs2)CCO1 | – | –

Row | pIC50 (Androgen receptor [1]) | pIC50 (Androgen receptor [2]) | Stability [3] | Structure (SMILES) | Activity [4] | growth inhibition (GI) (LNCaP)
24 | 6.05 | 5.84 | – | N#Cc1ccc(-c2ccc(N3CCOCC3)s2)cc1 | – | –
25 | – | 5.59 | – | c1ccc(-c2csc(N3CCOCC3)n2)nc1 | – | –
26 | 5.69 | 5.86 | – | Nc1ccccc1-c1csc(N2CCOCC2)n1 | – | –
27 | – | 5.90 | – | Fc1ccc(-c2csc(-c3ccncc3)n2)cc1 | – | –
28 | 6.09 | 5.92 | – | Oc1cc(F)ccc1-c1csc(N2CCOCC2)n1 | – | –
29 | 6.08 | 5.91 | – | c1ccc(-c2cc(N3CCOCC3)cs2)cc1 | – | –
30 | 5.07 | 5.24 | – | CCc1sc(N2CCOCC2)nc1-c1ccccc1 | – | –
31 | – | 5.30 | – | OCc1sc(N2CCOCC2)nc1-c1ccccc1 | – | –
32 | 6.64 | 6.52 | – | COc1cc(F)ccc1-c1csc(N2CCOCC2)n1 | – | –
33 | – | 5.53 | – | c1cc(-c2csc(N3CCOCC3)n2)ccn1 | – | –
34 | 5.76 | 5.55 | – | Brc1cn(-c2csc(N3CCOCC3)n2)cn1 | – | –
35 | 6.36 | 6.48 | – | Clc1ncn(-c2csc(N3CCOCC3)n2)c1Br | – | –
36 | – | – | – | Cc1cc(C=Cc2ccc3cc(N(C)C)ccc3[n+]2C)c(C)n1-c1ccccc1.O=C([O-])c1cc2ccccc2c(Cc2c(O)c(C(=O)O)cc3ccccc23)c1O | Toxic | –
37 | – | – | – | Cc1cc(/C=C/c2ccc3cc(N(C)C)ccc3[n+]2C)c(C)n1-c1ccccc1 | – | inactive
38 | – | 6.21 | – | c1ccc(-c2csc(N3CCSCC3)n2)cc1 | – | –
39 | – | 5.80 | – | Fc1ccc(-c2csc(N3CCSCC3)n2)cc1 | – | –
40 | 6.16 | 5.99 | – | c1ccc(-c2csc(N3CCCCC3)n2)cc1 | – | –
41 | 6.60 | 6.74 | – | COc1c(-c2csc(N3CCOCC3)n2)ccc(F)c1F | – | –
42 | – | 5.52 | – | COc1c(F)cc(O)cc1-c1csc(N2CCOCC2)n1 | – | –
43 | 6.15 | 6.10 | – | Oc1c(-c2csc(N3CCOCC3)n2)ccc(F)c1F | – | –
44 | – | 5.01 | – | Oc1ccc(-c2ccc3ccccc3n2)cc1 | – | –
45 | 5.41 | 5.50 | – | CNc1nc(-c2ccc3ccccc3c2)cs1 | – | –
